Test results from patent publication US20150344457A1, “METHODS OF INHIBITING PRMT5” (EPIZYME, INC., priority 2012, published 2015).

Assays:
Z-138 cells [1] = assay: Z-138 Methylation Assay (In Cell Western for symmetric di-methyl arginine and DNA content); type: cell-based; conditions: Homo sapiens, Table D-2, read-out: ICW EC50
Summary of the method: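 Symmetric di-methyl arginine signal (800 nm) ratioed to DNA content (700 nm) by In Cell Western after four days of compound treatment of Z-138 suspension cells seeded at 50,000 cells/mL. Percent inhibition set between DMSO and 3 μM reference wells; IC50 curves from triplicates.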

Z-138 cells [2] = assay: Z-138 Proliferation Assay (Cell Titer Glo, 5 days); type: cell-based; conditions: Homo sapiens, Table D-2
Summary of the method: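 Exponentially growing Z-138 cells (10,000 cells/ml) in RPMI 1640 with 10% FBS are exposed to nine-point 3-fold dilutions (final top concentration 20 μM, 0.2% DMSO) for 5 days at 37° C. Viability is measured as ATP by CellTiter-Glo luminescence. The 50% inhibitory concentration comes from a 4-parameter fit.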

| SMILES | EC50 (Z-138 cells [1]) | EC50 (Z-138 cells [2]) |
| --- | --- | --- |
| OC(CNc1cc(-c2ncc3ccn(C4CCNCC4)c3n2)ccn1)CN1CCc2ccccc2C1 (stereo not drawn) [Compound D255] | < 0.1 µM | 0.101 to 1 µM |
| CC(=O)N(CC(O)CN1CCc2ccccc2C1)c1cccc(-c2ccc3ncn(C)c3c2)c1 (stereo not drawn) [Compound D273] | 0.101 to 1 µM | 10 to 40 µM |
| OC(COc1cccc(-c2ccc3ncn(C4CCNCC4)c3c2)c1)CN1CCc2ccccc2C1 (stereo not drawn) [Compound D220] | 0.101 to 1 µM | 1 to 10 µM |
| OC(COc1cccc(-c2ccc3ncn(C4CCNC4)c3c2)c1)CN1CCc2ccccc2C1 (stereo not drawn) [Compound D209] | 0.101 to 1 µM | 1 to 10 µM |
| OC(COc1cccc(-c2ccc3cn[nH]c3c2)c1)CN1CCc2ccccc2C1 (stereo not drawn) [Compound D58] | 1 to 10 µM | 10 to 40 µM |
| Cn1cnc2ccc(-c3cc(NCC(O)CN4CCc5ccccc5C4)n[nH]3)cc21 (stereo not drawn) [Compound D271] | 0.101 to 1 µM | > 20 µM |
| COC(COc1cccc(CNC2CCCC2)c1)CN1CCc2ccccc2C1 (stereo not drawn) [Compound D32] | > 20 µM | > 40 µM |
| Cn1ncc2cnc(-c3cccc(OCC(O)CN4CCc5ccccc5C4)c3)cc21 (stereo not drawn) [Compound D248] | 0.101 to 1 µM | 10 to 40 µM |
| OC(COc1cccc(-c2cc(C(F)(F)F)ccc2Cl)c1)CN1CCc2ccccc2C1 (stereo not drawn) [Compound D62] | 1 to 10 µM | 10 to 40 µM |
| Cn1ccc2ccc(-c3cc(NCC(O)CN4CCc5ccccc5C4)ncn3)cc21 (stereo not drawn) [Compound D237] | 0.101 to 1 µM | 10 to 40 µM |
| CN1CCN(C(=O)Cn2ccc3cnc(-c4ccnc(NCC(O)CN5CCc6ccccc6C5)c4)nc32)CC1 (stereo not drawn) [Compound D247] | < 0.1 µM | 1 to 10 µM |
| COc1ccc(-c2cccc(OCC(O)CN3CCc4ccccc4C3)c2)cc1 (stereo not drawn) [Compound D75] | 1 to 10 µM | 10 to 40 µM |
| Cn1cc2ccc(-c3ccnc(NCC(O)CN4CCc5ccccc5C4)c3)cc2n1 (stereo not drawn) [Compound D236] | 0.101 to 1 µM | 1 to 10 µM |
| OC(CNc1cc(-c2ncc3ccn(C4CNC4)c3n2)ccn1)CN1CCc2ccccc2C1 (stereo not drawn) [Compound D254] | 0.101 to 1 µM | 1 to 10 µM |
| OC(CNc1cc(-c2ccc3ncn(C4CCNCC4)c3c2)ccn1)CN1CCc2ccccc2C1 (stereo not drawn) [Compound D241] | 0.101 to 1 µM | 1 to 10 µM |
| Cn1cnc2ccc(-c3ccnc(NC[C@H](O)CN4CCc5ccccc5C4)c3)cc21 [Compound D275] | 0.101 to 1 µM | 1 to 10 µM |
| CN1CC(n2cnc3ccc(-c4cccc(OCC(O)CN5CCc6ccccc6C5)c4)cc32)C1 (stereo not drawn) [Compound D218] | 0.101 to 1 µM | 1 to 10 µM |
| CN1CCC(n2cnc3ccc(-c4cccc(OCC(O)CN5CCc6ccccc6C5)c4)cc32)C1 (stereo not drawn) [Compound D219] | 0.101 to 1 µM | 1 to 10 µM |
| Cn1cc2ccc(-c3cccc(OCC(O)CN4CCc5ccccc5C4)c3)nc2n1 (stereo not drawn) [Compound D210] | 0.101 to 1 µM | 10 to 40 µM |
| CC(=O)N1CCC(n2ccc3cnc(-c4ccnc(NCC(O)CN5CCc6ccccc6C5)c4)nc32)CC1 (stereo not drawn) [Compound D256] | < 0.1 µM | 0.101 to 1 µM |
| Cn1ncc2c1CN(c1cccc(OCC(O)CN3CCc4ccccc4C3)c1)CC2 (stereo not drawn) [Compound D216] | 1 to 10 µM | > 20 µM |
| CC1c2ccccc2CCN1CC(O)COc1cccc(-c2ccc3ncn(C)c3c2)c1 (stereo not drawn) [Compound D80] | > 20 µM | 1 to 10 µM |
| CC(=O)N1CCC(n2cnc3ccc(-c4ccnc(NCC(O)CN5CCc6ccccc6C5)c4)cc32)CC1 (stereo not drawn) [Compound D242] | 0.101 to 1 µM | 1 to 10 µM |
| O=C(Cn1ccc2cnc(-c3ccnc(NCC(O)CN4CCc5ccccc5C4)c3)nc21)N1CCCC1 (stereo not drawn) [Compound D233] | < 0.1 µM | 1 to 10 µM |
| OC(COc1cccc(-c2ccc3c(c2)OCCO3)c1)CN1CCc2ccccc2C1 (stereo not drawn) [Compound D85] | 1 to 10 µM | 10 to 40 µM |
| OC(COc1cccc(-c2ccc3ncn(C4CNC4)c3c2)c1)CN1CCc2ccccc2C1 (stereo not drawn) [Compound D208] | 1 to 10 µM | 1 to 10 µM |
| OC(COc1cccc(-c2ccc3c(c2)OCO3)c1)CN1CCc2ccccc2C1 (stereo not drawn) [Compound D59] | 10 to 40 µM | 10 to 40 µM |

| SMILES | EC50 (Z-138 cells [1]) | EC50 (Z-138 cells [2]) |
| --- | --- | --- |
| COc1cccc(-c2cccc(OCC(O)CN3CCc4ccccc4C3)c2)c1 (stereo not drawn) [Compound D74] | 1 to 10 µM | 10 to 40 µM |
| Cn1cc2ccc(-c3cccc(NCC(O)CN4CCc5ccccc5C4)c3)nc2n1 (stereo not drawn) [Compound D261] | 0.101 to 1 µM | 10 to 40 µM |
| O=C(c1ccc(Cn2nccc2-c2ccc(OCC(O)CN3CCc4ccccc4C3)cc2)cc1)N1CCCC1 (stereo not drawn) [Compound D31] | 1 to 10 µM | 10 to 40 µM |
| OC(COc1cccc(-c2cccc3cccnc23)c1)CN1CCc2ccccc2C1 (stereo not drawn) [Compound D65] | 0.101 to 1 µM | 10 to 40 µM |
| O=C(Cn1ccc2cnc(-c3ccnc(NCC(O)CN4CCc5ccccc5C4)c3)nc21)N1CCOCC1 (stereo not drawn) [Compound D234] | < 0.1 µM | 0.101 to 1 µM |
| COc1ccc(-c2cccc(OCC(O)CN3CCc4ccccc4C3)c2)c(C)c1 (stereo not drawn) [Compound D90] | 1 to 10 µM | 10 to 40 µM |
| CN1CCN(C(=O)Cn2cnc3ccc(-c4cccc(OCC(O)CN5CCc6ccccc6C5)c4)cc32)CC1 (stereo not drawn) [Compound D270] | 0.101 to 1 µM | 10 to 40 µM |
| OC(CNc1cc(-c2ccc3ncn(C4CCOCC4)c3c2)ccn1)CN1CCc2ccccc2C1 (stereo not drawn) [Compound D251] | 0.101 to 1 µM | 1 to 10 µM |
| CN1CCC(n2cnc3ccc(-c4ccnc(NCC(O)CN5CCc6ccccc6C5)c4)cc32)CC1 (stereo not drawn) [Compound D252] | 0.101 to 1 µM | 1 to 10 µM |
| Cn1cnc2cc(-c3cc(NCC(O)CN4CCc5ccccc5C4)n[nH]3)ccc21 (stereo not drawn) [Compound D272] | 0.101 to 1 µM | 1 to 10 µM |
| Cn1cnc2ccc(-c3ccnc(NCC(O)CN4CCc5ccccc5C4)c3)nc21 (stereo not drawn) [Compound D238] | < 0.1 µM | 1 to 10 µM |
| CN(CC(O)CN1CCc2ccccc2C1)c1cccc(CNC2CCCC2)c1 (stereo not drawn) [Compound D53] | 0.101 to 1 µM | 10 to 40 µM |
| OC(COc1cccc(-c2ncc3ccn(C4CCNCC4)c3n2)c1)CN1CCc2ccccc2C1 (stereo not drawn) [Compound D253] | 0.101 to 1 µM | 1 to 10 µM |
| CS(=O)(=O)c1ccc(-c2cccc(OCC(O)CN3CCc4ccccc4C3)c2)cc1 (stereo not drawn) [Compound D63] | 1 to 10 µM | 10 to 40 µM |
| CN1CCN(C(=O)Cn2ccc3cnc(-c4cccc(OCC(O)CN5CCc6ccccc6C5)c4)nc32)CC1 (stereo not drawn) [Compound D244] | 0.101 to 1 µM | 10 to 40 µM |
| O=C(Cn1ccc2cnc(-c3ccnc(NCC(O)CN4CCc5ccccc5C4)c3)nc21)N1CCCCC1 (stereo not drawn) [Compound D246] | < 0.1 µM | 0.101 to 1 µM |
| CNC(=O)Cn1cnc2ccc(-c3cccc(OCC(O)CN4CCc5ccccc5C4)c3)cc21 (stereo not drawn) [Compound D262] | 1 to 10 µM | 1 to 10 µM |
| CC(Oc1cccc(CNC2CCCC2)c1)C(O)CN1CCc2ccccc2C1 (stereo not drawn) [Compound D49] | 0.101 to 1 µM | 1 to 10 µM |
| CC(=O)N1CCC(n2ccc3cnc(-c4cccc(OCC(O)CN5CCc6ccccc6C5)c4)nc32)CC1 (stereo not drawn) [Compound D243] | 0.101 to 1 µM | 1 to 10 µM |
| OC(CNc1cc(-c2ccc3ncn(C4CCNC4)c3c2)ccn1)CN1CCc2ccccc2C1 (stereo not drawn) [Compound D240] | 0.101 to 1 µM | 1 to 10 µM |
| Cn1cnc2ccc(-c3cccc(OCC(O)CN4CCc5ccccc5C4)c3)cc21 (stereo not drawn) [Compound D45] | 0.101 to 1 µM | 1 to 10 µM |
| CNC(=O)Cn1ccc2cnc(-c3ccnc(NCC(O)CN4CCc5ccccc5C4)c3)nc21 (stereo not drawn) [Compound D245] | 0.101 to 1 µM | 1 to 10 µM |
| Cn1ncc2ccc(-c3ccnc(NCC(O)CN4CCc5ccccc5C4)c3)cc21 (stereo not drawn) [Compound D226] | 0.101 to 1 µM | 1 to 10 µM |
| Cn1cnc2ccc(-c3cc(NCC(O)CN4CCc5ccccc5C4)ccn3)cc21 (stereo not drawn) [Compound D217] | 1 to 10 µM | 10 to 40 µM |
| OC(COc1cccc(-c2cccc3[nH]cnc23)c1)CN1CCc2ccccc2C1 (stereo not drawn) [Compound D223] | 0.101 to 1 µM | 10 to 40 µM |
| OC(CNc1cc(-c2ccc3ncn(C4COC4)c3c2)ccn1)CN1CCc2ccccc2C1 (stereo not drawn) [Compound D265] | 0.101 to 1 µM | 1 to 10 µM |
| O=C(Cn1ccc2cnc(-c3cccc(OCC(O)CN4CCc5ccccc5C4)c3)nc21)N1CCOCC1 (stereo not drawn) [Compound D222] | 0.101 to 1 µM | 10 to 40 µM |
